Patent US12409206B2, “Use of cyclosporine analogues for treating fibrosis” (Hepion Pharmaceuticals, Inc., priority 2020, dated 2025)
Read-outs that look alike come from different tables or passages of the source.

System: human precision cut liver slices (PCLS)
Experiment: PCLS RNA-Seq, Stimulation Protocol: TGFb/PDGF+CRV vs TGFb/PDGF+Vehicle
Type: cell-based
Details: for fold change in RNA: presence of exogenous TGFβ+PDGF-BB, universal in all donors
Method: PCLS were obtained from 5 human donors who underwent resection of liver cancer. Replicate slices were collected from healthy margins of the resections and cultured for 4 or 6 days depending on the experimental protocol. In the Nonstimulation Protocol slices were cultured for 6 days and treated for the entire period with DMSO vehicle or 5 μM CRV431. In the Stimulation Protocol slices were rested for 1 day and then administered the cytokines, TGFβ and PDGF-BB, for 3 days to stimulate inflammation and fibrosis. DMSO vehicle, CRV431 (1 and 5 μM), Alk5i (10 μM), obeticholic acid (5 μM), elafibranor (5 μM), resmetirom ([…]), and Aramchol (5 μM) were administered individually as drug treatments in the Stimulation Protocol concurrent with TGFβ+PDGF-BB. Culture medium treatments were replaced daily.
Four types of evaluations were conducted on the PCLS: (a) secretion of inflammation and fibrosis biomarkers into the culture medium, (b) histological staining and quantitation of Sirius red as a measure of tissue fibrosis, (c) gene expression of inflammation and fibrosis biomarkers by RT-PCR, and (d) RNA sequencing (RNA-Seq) of the complete transcriptome. Each of the four types of evaluation is described below: • (a) Biomarker secretion. Spent culture medium was collected daily from duplicate slices for each treatment. ELISAs were used to quantify secretion of monocyte chemoattractant protein (MCP-1), interleukin-6 (IL-6), tissue inhibitor of metalloproteinase-1 (TIMP1), hyaluronic acid, fibronectin, and collagen 1α1. For each donor the mean level of biomarker secretion in each treatment group was expressed as a percentage change relative to DMSO vehicle, the percentages averaged for all donors, and finally the mean daily percentage change calculated from all days of evaluation. Results are shown in FIG. 8A (secreted markers-% daily average change). • (b) Sirius red histological staining. […] Sirius red was quantified morphometrically in the histological sections as the percentage area with Sirius red staining in 10 sections from each treatment. In the Nonstimulation Protocol the quantity of Sirius red staining was expressed relative to the vehicle group. In the Stimulation Protocol the quantity of Sirius red staining was expressed relative to nonstimulated PCLS (0%) and TGFβ+PDGF-BB-stimulated+vehicle PCLS (100%). Results are shown in FIG. 8B (Sirius red staining for tissue fibrosis). • (c) Gene expression by RT-PCR. RNA was isolated from duplicate liver slices per treatment at the end of the experiments and evaluated by RT-PCR for 5 markers of inflammation and fibrosis: MCP-1, IL-6, TIMP1, αSMA, and collagen 1α1. β actin was used as a reference gene to calculate relative levels of each target gene RNA. […] Results are shown in FIG. 8C (gene expression by RT-PCR). • (d) Gene expression by RNA-Seq. RNA sequencing of the complete transcriptome (30 million reads per sample) was conducted on vehicle and 5 μM CRV431 treatment groups from 3 donors both from the Nonstimulation and Stimulation Protocols. Data were analyzed by bioinformatics software programs to identify genes that were differentially expressed between vehicle and CRV431 treatments.
For the evaluation done for (d), 12 samples corresponding to 3 different donor slides which underwent 4 different treatments were studied. the comparisons carried out in this analysis are: (1) TGFb/PDGF+CRV vs TGFb/PDGF+Vehicle (V), and (2) Non-stimulated+CRV vs Non-stimulated+Vehicle. […] Table 1. Samples for evaluation (d)
Quality Control check was performed in all samples. All samples had more than 30 million reads and a quality score average >35 for almost all the bases in the sequences. The duplication levels are expected as it is RNA sequencing, and different copies of the same RNA are expected to be present in the samples. All samples had good amount of reads and quality, therefore all samples passed the QC checked and were included in the analysis. […]

Structure (SMILES): CC[C@@H]1NC(=O)[C@H]([C@H](O)[C@H](C)CCCCCCNC(C)=O)N(C)C(=O)[C@H](C(C)C)N(C)C(=O)[C@H](CC(C)C)N(C)C(=O)[C@H](CC(C)C)N(C)C(=O)[C@@H](C)NC(=O)[C@H](C)NC(=O)[C@H](CC(C)C)N(C)C(=O)[C@H](C(C)C)NC(=O)[C@H](CC(C)C)N(C)C(=O)[C@@H](C)N(C)C1=O [CRV431]
- log2FoldChange: 1.025
- log2FoldChange (gene AC009053.1, TGFb/PDGF+CRV vs TGFb/PDGF+Vehicle): 1.194
- log2FoldChange (gene AC134772.2, TGFb/PDGF+CRV vs TGFb/PDGF+Vehicle): −4.561
- log2FoldChange (gene ADH1B, TGFb/PDGF+CRV vs TGFb/PDGF+Vehicle): 2.156
- log2FoldChange (gene ADH1C, TGFb/PDGF+CRV vs TGFb/PDGF+Vehicle): 1.869
- log2FoldChange (gene ADH4, TGFb/PDGF+CRV vs TGFb/PDGF+Vehicle): 2.123
- log2FoldChange (gene ADH6, TGFb/PDGF+CRV vs TGFb/PDGF+Vehicle): 1.903
- log2FoldChange (gene ADIRF, TGFb/PDGF+CRV vs TGFb/PDGF+Vehicle): 1.402
- log2FoldChange (gene APLNR, TGFb/PDGF+CRV vs TGFb/PDGF+Vehicle): 0.844
- log2FoldChange (gene ASPG, TGFb/PDGF+CRV vs TGFb/PDGF+Vehicle): 0.91
- log2FoldChange (gene ATP13A4, TGFb/PDGF+CRV vs TGFb/PDGF+Vehicle): −3.082
- log2FoldChange (gene C7, TGFb/PDGF+CRV vs TGFb/PDGF+Vehicle): 0.739
- log2FoldChange (gene CA11, TGFb/PDGF+CRV vs TGFb/PDGF+Vehicle): −1.573
- log2FoldChange (gene CBFA2T2, TGFb/PDGF+CRV vs TGFb/PDGF+Vehicle): 1.299
- log2FoldChange (gene CD93, TGFb/PDGF+CRV vs TGFb/PDGF+Vehicle): −0.613
- log2FoldChange (gene CHST1, TGFb/PDGF+CRV vs TGFb/PDGF+Vehicle): −1.087
- log2FoldChange (gene COL5A3, TGFb/PDGF+CRV vs TGFb/PDGF+Vehicle): −0.842
- log2FoldChange (gene CXADR, TGFb/PDGF+CRV vs TGFb/PDGF+Vehicle): 1.61
- log2FoldChange (gene CYP4A11, TGFb/PDGF+CRV vs TGFb/PDGF+Vehicle): 1.611
- log2FoldChange (gene CYP26A1, TGFb/PDGF+CRV vs TGFb/PDGF+Vehicle): −1.283
- log2FoldChange (gene CYP26B1, TGFb/PDGF+CRV vs TGFb/PDGF+Vehicle): −0.656
- log2FoldChange (gene DCHS1, TGFb/PDGF+CRV vs TGFb/PDGF+Vehicle): −0.686
- log2FoldChange (gene DLL4, TGFb/PDGF+CRV vs TGFb/PDGF+Vehicle): −0.69
- log2FoldChange (gene DUOX2, TGFb/PDGF+CRV vs TGFb/PDGF+Vehicle): −2.182
- fold change in RNA (gene DUOX2): −4.5 fold
- log2FoldChange (gene DVL1, TGFb/PDGF+CRV vs TGFb/PDGF+Vehicle): 0.635
- log2FoldChange (gene ENSG00000283623 (symbol NA), TGFb/PDGF+CRV vs TGFb/PDGF+Vehicle): −5.759
- log2FoldChange (gene ERVK13-1, TGFb/PDGF+CRV vs TGFb/PDGF+Vehicle): −1.125
- log2FoldChange (gene ESAM, TGFb/PDGF+CRV vs TGFb/PDGF+Vehicle): −0.573
- log2FoldChange (gene ESM1, TGFb/PDGF+CRV vs TGFb/PDGF+Vehicle): −1.401
- fold change in RNA (gene ESMI): −2.6 fold
- log2FoldChange (gene ESR1, TGFb/PDGF+CRV vs TGFb/PDGF+Vehicle): 3.688
- log2FoldChange (gene F2RL3, TGFb/PDGF+CRV vs TGFb/PDGF+Vehicle): −0.711
- log2FoldChange (gene GLYATL1, TGFb/PDGF+CRV vs TGFb/PDGF+Vehicle): 1.438
- log2FoldChange (gene GPR4, TGFb/PDGF+CRV vs TGFb/PDGF+Vehicle): −0.9
- log2FoldChange (gene GRAP, TGFb/PDGF+CRV vs TGFb/PDGF+Vehicle): −0.772
- log2FoldChange (gene HIST2H2AA4, TGFb/PDGF+CRV vs TGFb/PDGF+Vehicle): −7.504
- log2FoldChange (gene IGHV4-61, TGFb/PDGF+CRV vs TGFb/PDGF+Vehicle): 7.957
- log2FoldChange (gene IGLON5, TGFb/PDGF+CRV vs TGFb/PDGF+Vehicle): −0.851
- log2FoldChange (gene ISLR2, TGFb/PDGF+CRV vs TGFb/PDGF+Vehicle): −1.27
- log2FoldChange (gene KDM6A, TGFb/PDGF+CRV vs TGFb/PDGF+Vehicle): 0.785
- log2FoldChange (gene LAMA4, TGFb/PDGF+CRV vs TGFb/PDGF+Vehicle): −0.939
